This note sets out measurements from US4497803A, “Inclusion compound of lankacidin-group antibiotic and use thereof” (priority 1982, dated 1985).

Converted amounts (≈) assume the structure as drawn. Read-outs that look alike come from different tables or passages of the source.

Data set [1] can be described thus: Solubility of lankacidin-group in β-CD solution (10^-2 Mol/l), shaken 30 minutes to one hour (Example 4). The format is physicochemical. Here is the method: (§1) Powdery lankacidin C was added to an aqueous solution of cyclodextrin (hereinafter referred to as "CD") to have 4 mg/ml of the lankacidin C contained. After the mixture was stirred with a mixer, it was shaken at 5° C. for 2 hours, and passed through filter paper. The absorbancy of the filtrate was measured at 227-229 nm to determine concentration of the lankacidin C.
The solubility of lankacidin-group in a solution of β-CD (10^-2 Mol/l) were measured in the same manner as that of Example 1 except that the shaking was continued for 30 minutes to one hour.

The next data set deals with St. aureus 209P. As to the kind of experiment: Stability of inclusion compound of lankacidin-group (24° C., for 6 days): antibacterial activity by paper disk assay. The note with it: methanol, 1000 μg/ml. Type of data set: cell-based. The procedure:
The inclusion compound of the present invention is stable in an aqueous solution, although it splits into lankacidin-group moiety and cyclodextrins moiety, when it is in the form of solution or powder, by contacting it with organic solvents (e.g., ethyl acetate, methyl isobutyl ketone) or various carriers (e.g., silica gel, high-porous resins). […] In comparing the antibacterial activity, concentrations of the inclusion compound are calculated in terms of lankacidin-group compound from which the inclusion compound is prepared.
Stability of inclusion compound of lankacidin-group
*1 Paper disk assay using Trypticase soy agar (Baltimore Biologicals Ltd.
U.S.A.) as test culture media.
*2 1000 μg/ml, Lankacidingroup is stable in methanol.
*3 Aqueous solution of the inclusion compound with cyclodextrin (1000
μg/ml calculated in terms of lankacidingroup)

Data set [2] is described as follows: Solubility of inclusion compound in water. The format is physicochemical. The procedure:
The lankacidin-group is added to each of solutions containing various amounts of cyclodextrin. The minimum concentration of cyclodextrin which dissolves the maximum amount of the lankacidin-group compound and practical concentrations thereof are determined on the basis of amounts of the lankacidin-group compound dissolved in the cyclodextrin solutions. Then, the molar ratio of cyclodextrin to lankacidin-group compound is calculated by the following equation:
Molar ratio=[Molarity of cyclodextrin]:[(Saturation molarity of lankacidin-group compound in a certain concentration of cyclodextrin-solution)-(saturation molarity of lankacidin-group compound in an aqueous solution)].
Moreover, a large amount of the present inclusion compound is dissolved in water and it is kept stably therein. Solubility of the inclusion compound in water is greater than that of landacidin-group compounds in water, when the amount of the inclusion compound dissolved is calculated in terms of lankacidin-group compound, and than saturation concentration of cyclodextrin in water so far as cyclodextrin contained in the inclusion compound is concerned (Table 2).
(1) Solubility of lankacidingroup in water.
(2) Solubility of lankacidingroup in M/100 cyclodextrin solution.
(3) Concentration of cyclodextrin of (2).
(4) Solubility (maximum) of the present inclusion compound (calculated in
terms of lankacidingroup contained) in water.
(5) Concentration of cyclodextrin contained in the inclusion compound of […]

The nature of data set [3]: Solubility in β-CD solution, shaken 16 hours (Example 3). Type of data set: physicochemical. The procedure:
as §1
The solubilities of lankacidin A, lankacidin C and lankacidinol in a β-CD solution were measured in the same manner as that of Example 1 except that the shaking was continued for 16 hours.

The nature of data set [4]: Solubility of C8-P and C14-P in CD solution, shaken one hour (Example 2). Type of data set: physicochemical. The procedure:
as §1
Solubilities of lankacidin C 8-propionate (hereinafter referred to as "C8-P"), and lankacidin C 14-propionate (hereinafter referred to as "C14-P") in a solution of CD were measured in the same manner as that of Example 1 except that the shaking was continued for one hour.

Setting [5] is: aqueous β-cyclodextrin solution, β-CD 10^-2 Mol/l, read-out: Solubility.
[6] abbreviates: β-CD 0 Mol/l (water), read-out: Solubility.
Setting [7] is: aqueous β-cd solution, β-CD 10^-2 Mol/l.
Setting [8] is: aqueous β-cd solution, β-CD 10^-3 Mol/l.
The mark [9] stands for this setting: aqueous β-cyclodextrin solution.
The mark [10] stands for this setting: aqueous β-cd solution, β-CD 10^-4 Mol/l.
Setting [11] is: aqueous γ-cd solution, γ-CD 10^-2 Mol/l.
Where [12] appears, read: aqueous γ-cd solution, γ-CD 10^-3 Mol/l.
Where [13] appears, read: aqueous γ-cd solution, γ-CD 10^-4 Mol/l.

`CC(=O)OC1C=CC(C)=CC(NC(=O)C(C)=O)C2(C)C(=O)OC(CC(OC(C)=O)C=CC(C)=CC1)C(C)C2=O` (centres unmarked) [Lankacidin C 8,14-diacetate, lankacidin C 8,14-diacetate]: the solubility in data set [1] (setting [5]) was found to be 681 µg/mL (≈ 1250 µM); in data set [1] (setting [6]) it was 16.2 µg/mL (≈ 29.8 µM). Also, the “ratio: Solubility in a 10^-2 Mol/l solution of CD/solubility in water” value (“ratio: Solubility” for short) in data set [1] (β-CD 10^-2 Mol/l vs water) amounted to 42.0.

Consider `CC1=CCC(O)C=CC(C)=CC(NC(=O)C(C)O)C2(C)C(=O)OC(CC(O)C=C1)C(C)C2=O` (centres unmarked) [Lankacidinol, lankacidinol], for which the entries for the “Antibacterial activity, inhibition diameter” value with St. aureus 209P (0 day), in the data set on St. aureus 209P (3 days at 24° C.) and in the data set with St. aureus 209P (6 days at 24° C.) were 25.75 mm, 27.0 mm and 30.0 mm, respectively. Moreover, the solubility in data set [2] (m/100 cyclodextrin solution, M/100 cyclodextrin, (3) cyclodextrin 11.3 mg/ml, read-out: (2) Solubility of lankacidin-group in M/100 cyclodextrin solution) came out at 3780 µg/mL (≈ 8190 µM); in data set [2] (water, read-out: (1) Solubility of lankacidin-group in water), 655 µg/mL (≈ 1420 µM). The solubility at 16 h is 1360 µg/mL (≈ 2950 µM) in data set [3] (aqueous β-cd solution, β-CD 2 × 10^-3 Mol/l); 2130 µg/mL (≈ 4610 µM) in data set [3] (aqueous β-cd solution, β-CD 5 × 10^-3 Mol/l); 2750 µg/mL (≈ 5960 µM) in data set [3] (setting [7]); 914 µg/mL (≈ 1980 µM) in data set [3] (setting [8]); 444 µg/mL (≈ 962 µM) in data set [3] (water, β-CD 0 Mol/l). Moreover, in data set [3] (from the vicinity of 10^-3 Mol/l of β-CD), the “Solubility in β-CD solution as function of β-CD concentration” value is “increase in proportion to the concentration of β-CD”.

Consider `CC(=O)OC1C=CC(C)=CC(NC(=O)C(C)OC(C)=O)C2(C)C(=O)OC(CC(OC(C)=O)C=CC(C)=CC1)C(C)C2=O` (centres unmarked) [Lankacidinol 2',8,14-triacetate], for which the “ratio: Solubility” value in data set [1] worked out at 9.0. Moreover, the figures for the solubility in data set [1] (setting [9]) and in data set [1] (water) were 332 µg/mL (≈ 565 µM) and 36.9 µg/mL (≈ 62.8 µM), respectively.

As for `CC(=O)OC1C=CC(C)=CC(NC(=O)C(C)=O)C2(C)C(=O)OC(CC(O)C=CC(C)=CC1)C(C)C2=O` (centres unmarked) [Lankacidin C 8-acetate, lankacidin C 8-acetate], the solubility in data set [1] (setting [5]) was determined as 2770 µg/mL (≈ 5520 µM); in data set [1] (setting [6]) it was 74.3 µg/mL (≈ 148 µM). The “ratio: Solubility” value in data set [1] (β-CD 10^-2 Mol/l vs water) stood at 37.3.

Turning to `CC(=O)OC1C=CC(C)=CCC(O)C=CC(C)=CC(NC(=O)C(C)O)C2(C)C(=O)OC(C1)C(C)C2=O` (centres unmarked) [Lankacidinol A, lankacidinol A], the solubility in data set [1] (setting [5]) amounted to 3070 µg/mL (≈ 6100 µM); in data set [1] (setting [6]), 170 µg/mL (≈ 338 µM). In addition, in data set [1] (β-CD 10^-2 Mol/l vs water), the “ratio: Solubility” value was 18.1.

`OC[C@H]1O[C@@H]2O[C@H]3[C@H](O)[C@@H](O)[C@@H](O[C@H]4[C@H](O)[C@@H](O)[C@@H](O[C@H]5[C@H](O)[C@@H](O)[C@@H](O[C@H]6[C@H](O)[C@@H](O)[C@@H](O[C@H]7[C@H](O)[C@@H](O)[C@@H](O[C@H]8[C@H](O)[C@@H](O)[C@@H](O[C@H]1[C@H](O)[C@H]2O)O[C@@H]8CO)O[C@@H]7CO)O[C@@H]6CO)O[C@@H]5CO)O[C@@H]4CO)O[C@@H]3CO` [cyclodextrin, β-cyclodextrin]: the “Concentration of cyclodextrin in its saturated aqueous solution” value in data set [2] (water) came to 1000 µg/mL.

As to Iso-lankacidinol, the figures for the solubility in data set [1] (β-CD 0 Mol/l (water)) and in data set [1] (β-CD 10^-2 Mol/l) were 796 µg/mL and 3200 µg/mL, respectively. Further, in data set [1] (β-CD 10^-2 Mol/l vs water), the “ratio: Solubility” value is listed as 4.02.

Consider `CC1=CCC(O)C=CC(C)=CC(NC(=O)C(C)O)C(C)C(=O)C(C)=CCC(O)C=C1` (centres unmarked) [Lankacyclinol, lankacyclinol], for which the “ratio: Solubility” value in data set [1] was determined as 4.38. In addition, the values for the solubility in data set [1] (setting [9]) and in data set [1] (water) were 3610 µg/mL (≈ 8650 µM) and 824 µg/mL (≈ 1970 µM), respectively.

In the case of `CCCC(=O)OC1C=CC(C)=CC(NC(=O)C(C)=O)C2(C)C(=O)OC(CC(O)C=CC(C)=CC1)C(C)C2=O` (centres unmarked) [Lankacidin C 8-butylate], the solubility in data set [1] (setting [5]) is 404 µg/mL (≈ 763 µM); in data set [1] (setting [6]) it was 9 µg/mL (≈ 17 µM). In data set [1] (β-CD 10^-2 Mol/l vs water), the “ratio: Solubility” value worked out at 44.9.

On to `CC(=O)OC1C=CC(C)=CC(NC(=O)C(C)O)C2(C)C(=O)OC(CC(OC(C)=O)C=CC(C)=CC1)C(C)C2=O` (centres unmarked) [Lankacidinol 8,14-diacetate], for which the solubility in data set [1] (setting [5]) was 1780 µg/mL (≈ 3260 µM); in data set [1] (setting [6]), 440 µg/mL (≈ 806 µM). For the same molecule, the “ratio: Solubility” value in data set [1] (β-CD 10^-2 Mol/l vs water) was 4.05.

With `CCC(=O)OC1C=CC(C)=CC(NC(=O)C(C)=O)C2(C)C(=O)OC(CC(O)C=CC(C)=CC1)C(C)C2=O` (centres unmarked) [C8-P, lankacidin C 8-propionate], the “Solubility in CD solution, C8-P compared with C14-P” value in data set [4] (CD solutions) is recorded as “better solubility than that of C14-P”. The solubility at 1 h in data set [4] (setting [7]) is 3840 µg/mL (≈ 7450 µM); in data set [4] (setting [8]) it was 328 µg/mL (≈ 636 µM); in data set [4] (setting [10]) it was 46 µg/mL (≈ 89.2 µM); in data set [4] (setting [11]), 1610 µg/mL (≈ 3120 µM); in data set [4] (setting [12]) it was 249 µg/mL (≈ 483 µM); in data set [4] (setting [13]), 54 µg/mL (≈ 105 µM). The solubility at 1 h was 18 µg/mL (≈ 34.9 µM) in data set [4] (water, β-CD, CD 0 Mol/l) and 19 µg/mL (≈ 36.9 µM) in data set [4] (water, γ-CD, CD 0 Mol/l).

Turning to `CCC(=O)OC1C=CC(C)=CCC(O)C=CC(C)=CC(NC(=O)C(C)=O)C2(C)C(=O)OC(C1)C(C)C2=O` (centres unmarked) [C14-P, lankacidin C 14-propionate], the solubility at 1 h is 159 µg/mL (≈ 308 µM) in data set [4] (setting [7]); 67 µg/mL (≈ 130 µM) in data set [4] (setting [8]); 21 µg/mL (≈ 40.7 µM) in data set [4] (setting [10]); 273 µg/mL (≈ 529 µM) in data set [4] (setting [11]); 114 µg/mL (≈ 221 µM) in data set [4] (setting [12]); 35 µg/mL (≈ 67.9 µM) in data set [4] (setting [13]). The solubility at 1 h in data set [4] (water, β-CD, CD 0 Mol/l) is 19 µg/mL (≈ 36.9 µM); in data set [4] (water, γ-CD, CD 0 Mol/l), 19 µg/mL (≈ 36.9 µM).

In the case of `CCCC(=O)OC1C=CC(C)=CCC(O)C=CC(C)=CC(NC(=O)C(C)=O)C2(C)C(=O)OC(C1)C(C)C2=O` (centres unmarked) [Lankacidin C 14-butylate], the solubility in data set [1] (setting [5]) came out at 118 µg/mL (≈ 223 µM); in data set [1] (setting [6]) it was 17 µg/mL (≈ 32.1 µM). The “ratio: Solubility” value in data set [1] (β-CD 10^-2 Mol/l vs water) amounted to 6.94.
